In the NIST ThermoML archive (doi:10.1016/j.jct.2005.03.019):

Test: xn = mol fraction of the nth substance listed
Conditions: 101 kPa, Liquid, Vibrating tube method

C=Cc1ccccc1 [styrene] + CC1COC(=O)O1
Conditions | mass density [kg/m3]
293.15 K, x1 = 0.0537 | 1180.1
293.15 K, x1 = 0.1389 | 1149.3
293.15 K, x1 = 0.1832 | 1134
293.15 K, x1 = 0.2341 | 1116.8
293.15 K, x1 = 0.294 | 1097.3
293.15 K, x1 = 0.3867 | 1068.4
293.15 K, x1 = 0.4379 | 1053.1
293.15 K, x1 = 0.5089 | 1032.5
293.15 K, x1 = 0.5799 | 1012.6
293.15 K, x1 = 0.6328 | 998.3
293.15 K, x1 = 0.6978 | 981.1
293.15 K, x1 = 0.7534 | 966.7
293.15 K, x1 = 0.8136 | 951.5
293.15 K, x1 = 0.8738 | 936.6
293.15 K, x1 = 0.9348 | 921.7
293.15 K, x1 = 1 | 906
303.15 K, x1 = 0.0613 | 1158.4
303.15 K, x1 = 0.1289 | 1134.8
303.15 K, x1 = 0.1743 | 1119.6
303.15 K, x1 = 0.2389 | 1098.5
303.15 K, x1 = 0.2976 | 1080.1
303.15 K, x1 = 0.3681 | 1058.8
303.15 K, x1 = 0.4178 | 1044.3
303.15 K, x1 = 0.4622 | 1031.7
303.15 K, x1 = 0.5239 | 1014.6
303.15 K, x1 = 0.5919 | 996.3
303.15 K, x1 = 0.6521 | 980.7
303.15 K, x1 = 0.7244 | 962.4
303.15 K, x1 = 0.7932 | 945.4
303.15 K, x1 = 0.8472 | 932.4
303.15 K, x1 = 0.9247 | 914
303.15 K, x1 = 1 | 896.4
313.15 K, x1 = 0.0473 | 1144.7
313.15 K, x1 = 0.1255 | 1118.3
313.15 K, x1 = 0.1922 | 1096.7
313.15 K, x1 = 0.2467 | 1079.7
313.15 K, x1 = 0.2844 | 1068.3
313.15 K, x1 = 0.3388 | 1052.2
313.15 K, x1 = 0.4032 | 1033.8
313.15 K, x1 = 0.4789 | 1013
313.15 K, x1 = 0.5376 | 997.4
313.15 K, x1 = 0.6198 | 976.4
313.15 K, x1 = 0.6638 | 965.4
313.15 K, x1 = 0.7398 | 946.9
313.15 K, x1 = 0.8133 | 929.5
313.15 K, x1 = 0.8756 | 915.1
313.15 K, x1 = 0.9456 | 899.1
313.15 K, x1 = 1 | 886.9
323.15 K, x1 = 0.0598 | 1122.3
323.15 K, x1 = 0.1431 | 1095.3
323.15 K, x1 = 0.1846 | 1082.4
323.15 K, x1 = 0.2572 | 1060.6
323.15 K, x1 = 0.3312 | 1039.2
323.15 K, x1 = 0.3841 | 1024.5
323.15 K, x1 = 0.4423 | 1008.8
323.15 K, x1 = 0.4928 | 995.6
323.15 K, x1 = 0.5634 | 977.7
323.15 K, x1 = 0.6143 | 965.1
323.15 K, x1 = 0.6635 | 953.3
323.15 K, x1 = 0.7187 | 940.3
323.15 K, x1 = 0.7749 | 927.3
323.15 K, x1 = 0.8353 | 913.6
323.15 K, x1 = 0.9244 | 893.8
323.15 K, x1 = 1 | 877.3
333.15 K, x1 = 0.0534 | 1106.6
333.15 K, x1 = 0.113 | 1087.7
333.15 K, x1 = 0.1682 | 1070.9
333.15 K, x1 = 0.2134 | 1057.5
333.15 K, x1 = 0.2843 | 1037.2
333.15 K, x1 = 0.3587 | 1016.8
333.15 K, x1 = 0.4238 | 999.7
333.15 K, x1 = 0.479 | 985.6
333.15 K, x1 = 0.5359 | 971.5
333.15 K, x1 = 0.5831 | 960.1
333.15 K, x1 = 0.6811 | 937.2
333.15 K, x1 = 0.7529 | 920.9
333.15 K, x1 = 0.8243 | 905.2
333.15 K, x1 = 0.8871 | 891.7
333.15 K, x1 = 0.9424 | 879.9
333.15 K, x1 = 1 | 867.8
343.15 K, x1 = 0.0648 | 1085.6
343.15 K, x1 = 0.1198 | 1068.9
343.15 K, x1 = 0.1823 | 1050.6
343.15 K, x1 = 0.2398 | 1034.3
343.15 K, x1 = 0.318 | 1013
343.15 K, x1 = 0.3832 | 996
343.15 K, x1 = 0.4429 | 981
343.15 K, x1 = 0.5138 | 963.8
343.15 K, x1 = 0.5824 | 947.6
343.15 K, x1 = 0.6529 | 931.6
343.15 K, x1 = 0.7039 | 920.3
343.15 K, x1 = 0.7735 | 905.2
343.15 K, x1 = 0.8423 | 890.7
343.15 K, x1 = 0.8814 | 882.5
343.15 K, x1 = 0.9476 | 868.9
343.15 K, x1 = 1 | 858.2
353.15 K, x1 = 0.0621 | 1069.6
353.15 K, x1 = 0.1257 | 1051
353.15 K, x1 = 0.1644 | 1040
353.15 K, x1 = 0.2312 | 1021.6
353.15 K, x1 = 0.3042 | 1002.2
353.15 K, x1 = 0.3718 | 985
353.15 K, x1 = 0.4423 | 967.7
353.15 K, x1 = 0.5021 | 953.5
353.15 K, x1 = 0.5539 | 941.6
353.15 K, x1 = 0.6243 | 925.9
353.15 K, x1 = 0.6912 | 911.4
353.15 K, x1 = 0.752 | 898.5
353.15 K, x1 = 0.8132 | 885.9
353.15 K, x1 = 0.8642 | 875.5
353.15 K, x1 = 0.9248 | 863.4
353.15 K, x1 = 1 | 848.6
